In patent US20080188654A1, “Compounds for treatment of inflammation, diabetes and related disorders” (Theracos, Inc., priority 2001, published 2008):
Values belong to the compound of their own block, whether it stands above or below them.

Legend:
[1] = test system: COX-2; assay: Inhibition of LPS-induced COX-2 production in RAW264.7 cells (Western blot); type: cell-based, mouse; details: LPS-stimulated cells; FIG. 8
[2] = test system: COX-1; assay: COX-1 production in LPS-stimulated RAW264.7 cells (Western blot); type: cell-based, mouse; details: FIG. 8
[3] = test system: IL-1 beta; assay: Inhibition of LPS-induced IL-1 beta production in RAW264.7 cells (ELISA); type: cell-based, mouse
[4] = test system: IL-6; assay: Inhibition of LPS-induced IL-6 production in RAW264.7 cells (ELISA); type: cell-based, mouse
[5] = test system: ob/ob mice; assay: Glucose-lowering effect in ob/ob mice; type: in vivo, mouse; details: 10 mg/kg daily oral, p<0.05
[6] = test system: iNOS; assay: Inhibition of LPS-induced iNOS production in RAW264.7 cells (Western blot); type: cell-based, mouse; details: 10, 30 or 100 μM; FIG. 8
[7] = test system: ob/ob mice; assay: Lipid-lowering effects in ob/ob mice; type: in vivo, mouse; details: 10 mg/kg daily oral, day 8, versus vehicle, p<0.05
[8] = test system: 3T3-L1 differentiated adipocytes; assay: Glucose uptake in 3T3-L1 adipocytes (14C-deoxyglucose); type: cell-based, mouse; details: different concentrations, 48 hours; percentage of basal; FIG. 1
[9] = test system: TNF-alpha; assay: Inhibition of LPS-induced TNF-alpha production in RAW264.7 cells (ELISA); type: cell-based, mouse
[10] = test system: 3T3-L1 adipocytes; assay: Insulin-stimulated glucose uptake in 3T3-L1 adipocytes; type: cell-based, mouse; details: 5 μM, 48 hours; compared to vehicle; FIG. 2
[11] = target: T1, PDE3 partially purified from human platelets (Homo sapiens, UniProt Q14432); assay: Inhibition of PDE3 enzyme activity; type: biochemical; details: read-out: Percent Inhibition of Enzyme Activity
T1 construct: PDE3 partially purified from human platelets were used; from tissue; host or cells: human platelets (partially purified enzyme)

[12] = test system: TNF-alpha; assay: Inhibition of LPS-induced TNF-alpha release by human monocytes; type: cell-based; details: Monocyte, read-out: Percent Inhibition of TNF-alpha Release
[13] = test system: mouse mesenteric lymph node cells; assay: Inhibition of anti-CD3/anti-CD28 stimulated lymphocyte proliferation; type: cell-based
[14] = test system: PDE4 partially purified from human U-937 promonocytic cells; assay: Inhibition of PDE4 enzyme activity; type: biochemical
[15] = test system: p44/42 MAP kinase; assay: Inhibition of phosphorylation of p44/42 MAP kinase in RAW 264.7 gamma NO(-) cells (Western blot); type: cell-based, mouse; details: for inhibition of LPS-induced phosphorylation of p44/42 MAP kinase: 10 ng/ml LPS
[16] = test system: TNF-alpha; assay: Inhibition of LPS-induced TNF-alpha production in mice; type: in vivo, mouse; details: for Percent TNF Production (Mean ± SEM): plasma 1 h after LPS, vehicle = 100%, p < 0.05; for inhibition of LPS-induced TNF-alpha production in mice: 50 or 100 mg/kg oral
[17] = test system: DBA/1J mice; assay: Collagen-induced arthritis in mice; type: in vivo, mouse
[18] = test system: human elutriated monocytes; assay: Cell viability of human monocytes (MTS/PMS assay); type: cell-based; details: 30 μM, 20 h
[19] = high dose, 100 mg/kg oral twice daily 14 days

T1 sequence (Q14432 whole entry): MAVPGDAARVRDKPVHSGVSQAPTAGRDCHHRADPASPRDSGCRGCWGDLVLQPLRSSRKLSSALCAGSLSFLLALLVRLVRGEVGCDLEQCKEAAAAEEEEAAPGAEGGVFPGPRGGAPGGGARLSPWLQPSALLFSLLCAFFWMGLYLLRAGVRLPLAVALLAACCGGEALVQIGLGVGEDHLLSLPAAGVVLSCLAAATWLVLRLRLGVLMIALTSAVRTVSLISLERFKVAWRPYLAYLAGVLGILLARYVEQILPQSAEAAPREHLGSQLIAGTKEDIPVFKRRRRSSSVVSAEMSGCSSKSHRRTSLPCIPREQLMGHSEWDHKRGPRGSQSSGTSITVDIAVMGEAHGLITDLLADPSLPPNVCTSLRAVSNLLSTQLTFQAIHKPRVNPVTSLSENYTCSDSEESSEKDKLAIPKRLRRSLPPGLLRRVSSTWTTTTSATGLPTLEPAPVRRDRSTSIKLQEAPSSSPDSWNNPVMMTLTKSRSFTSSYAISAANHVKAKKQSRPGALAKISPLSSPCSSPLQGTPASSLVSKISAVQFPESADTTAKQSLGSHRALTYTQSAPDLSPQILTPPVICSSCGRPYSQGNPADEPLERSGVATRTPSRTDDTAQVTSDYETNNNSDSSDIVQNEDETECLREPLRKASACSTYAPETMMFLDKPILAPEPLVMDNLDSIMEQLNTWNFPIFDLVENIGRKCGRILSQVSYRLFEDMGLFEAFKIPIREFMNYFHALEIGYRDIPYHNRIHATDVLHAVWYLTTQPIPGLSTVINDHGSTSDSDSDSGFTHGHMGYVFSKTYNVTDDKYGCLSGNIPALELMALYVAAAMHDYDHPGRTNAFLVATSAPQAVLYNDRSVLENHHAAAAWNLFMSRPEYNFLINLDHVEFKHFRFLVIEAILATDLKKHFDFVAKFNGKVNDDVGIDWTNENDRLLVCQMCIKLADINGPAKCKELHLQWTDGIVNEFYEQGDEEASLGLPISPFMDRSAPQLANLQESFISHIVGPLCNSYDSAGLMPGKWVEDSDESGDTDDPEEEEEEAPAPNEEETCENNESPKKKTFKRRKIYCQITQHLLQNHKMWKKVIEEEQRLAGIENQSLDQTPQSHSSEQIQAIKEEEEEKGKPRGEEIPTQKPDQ

Structure (SMILES): COC(=O)C(=Cc1cc(OC)cc(OC)c1)c1ccc(Oc2ccc(CCC(=O)NC(N)=O)cc2)cc1 [Compound 1, 3-(3,5-dimethoxyphenyl)-2-{4-[4-(3-oxo-3-ureidopropyl)-phenoxy]-phenyl}-acrylic acid methyl ester]
- inhibition of COX-2 production [1]: selectively inhibited production of COX-2
- inhibition of COX-1 production [2]: not COX-1
- inhibition of LPS-induced IL-1 beta production ([3]; 10, 30 or 100 μM, FIG. 6): significantly inhibited
- inhibition of IL-1 beta compared with dexamethasone ([3]; versus 1 μM dexamethasone): of the same approximate magnitude as that seen with dexamethasone
- inhibition of LPS-induced IL-6 production ([4]; 10, 30 or 100 μM, FIG. 7): significantly inhibited
- inhibitory effect on IL-6 compared with dexamethasone ([4]; versus 1 μM dexamethasone): greater than that observed with dexamethasone
- decrease in blood glucose levels ([5]; day 6, versus vehicle): 36%
- decrease in blood glucose levels ([5]; day 8, versus vehicle): 23%
- inhibition of LPS-induced iNOS production [6]: dose-dependent inhibition
- free fatty acids lower [7]: 19%
- serum triglycerides lower [7]: 49%
- glucose uptake [8]: dose-dependent increase in glucose uptake
- inhibition of LPS-induced TNF-alpha production ([9]; 10, 30 or 100 μM, FIG. 5): significantly inhibited
- inhibitory effect on TNF-alpha compared with dexamethasone ([9]; versus 1 μM dexamethasone): approached that seen with dexamethasone
- stimulation of glucose uptake by insulin [10]: enhanced the stimulation of glucose uptake by insulin

- inhibition at 1 µM ([11]; PDE3, 1 μM): 20%
- inhibition at 10 µM ([11]; PDE3, 10 μM): 52%
- inhibition at 30 µM ([11]; PDE3, 30 μM): 55%
- IC50 ([14]; PDE4): < 1000 nM
Structure (SMILES): COc1cc(/C=C(/C(=O)N(C)C)c2ccc(Oc3ccc(CCC(=O)NC(N)=O)cc3)cc2)cc(OC)c1 [Compound 13, 3-(3,5-dimethoxyphenyl)-N,N-dimethyl-2-{4-[4-(3-oxo-3-ureido-propyl)-phenoxy]-phenyl}-acrylamide]
- inhibition at 0.3 µM [12]: 15%
- inhibition at 1 µM [12]: 40%
- inhibition at 3 µM [12]: 70%
- inhibition at 10 µM [12]: 78%
- inhibition at 30 µM [12]: 78%
- O.D. (Mean ± SD) ([13]; 10 μM + anti-CD3/anti-CD28 mAbs, 67 h, MTS/PMS, 505 nm): 0.578 ± 0.012
- inhibition at 10 µM ([13]; Mus musculus, Lymphocyte, 10 μM, stimulated by anti-CD3/anti-CD28 monoclonal antibodies): ~50%
- Percent Inhibition of Enzyme Activity ([14]; PDE4, 1 μM): 85%
- Percent Inhibition of Enzyme Activity ([14]; PDE4, 10 μM): 98%
- Percent Inhibition of Enzyme Activity ([14]; PDE4, 30 μM): 102%
- inhibition of LPS-induced phosphorylation of p44/42 MAP kinase ([15]; 10 μM): not
- inhibition of LPS/IFN-gamma induced phosphorylation of p44/42 ([15]; 30 μM and 10 μM, LPS (10 ng/ml)/IFN-gamma (10 U/ml)): inhibited LPS/IFN-gamma induced phosphorylation of p44/42 in a dose-dependent manner
- inhibition of LPS-induced phosphorylation of p44/42 MAP kinase ([15]; 30 μM): inhibited

Structure (SMILES): COc1cc(/C=C(/C(=O)N(C)C)c2ccc(Oc3ccc(CCC(N)=O)cc3)cc2)cc(OC)c1 [Compound 31, 2-{4-[4-(2-carbamoylethyl)-phenoxy]-phenyl}-3-(3,5-dimethoxyphenyl)-N,N-dimethylacrylamide]
- inhibition at 1 µM [12]: 51%
- inhibition at 3 µM [12]: 73%
- inhibition at 10 µM [12]: 83%
- inhibition at 30 µM [12]: 86%
- Percent TNF Production (Mean ± SEM) ([16]; 50 mg/kg oral): 68 ± 11%
- Percent TNF Production (Mean ± SEM) ([16]; 100 mg/kg oral): 53 ± 20%
- inhibition of LPS-induced TNF-alpha production in mice [16]: significantly inhibited
- arthritis clinical score (severity) [17, 19]: prevented the increase in severity
- histology of hind limbs [17, 19]: reduction in incidence and severity of pannus formation, inflammation cell infiltration and bone/cartilage damage
- histology of hind limbs ([17]; low dose, 40 mg/kg oral twice daily 14 days): marked chronic inflammation of synovium with pannus formation and destruction of bone and cartilage
- arthritis clinical score (severity) ([17]; low dose, 40 mg/kg oral twice daily 14 days, compared with vehicle): no apparent effect

Structure (SMILES): CCOC(=O)CCc1ccc(Oc2ccc(/C(=C\c3cc(OC)cc(OC)c3)C(=O)N(C)C)cc2)cc1 [Compound 37, 3-(4-{4-[2-(3,5-dimethoxyphenyl)-1-dimethylcarbamoylvinyl]-phenoxy}-phenyl)-propionic acid ethyl ester]
- inhibition at 1 µM [12]: 17%
- inhibition at 3 µM [12]: 38%
- inhibition at 10 µM [12]: 65%
- inhibition at 30 µM [12]: 78%

Structure (SMILES): COc1cc(/C=C(/C(=O)N(C)C)c2ccc(NC(=O)c3cccc(O)c3)cc2)cc(OC)c1 [Compound 44, N-{4-[2-(3,5-dimethoxyphenyl)-1-dimethylcarbamoylvinyl]-phenyl}-3-hydroxybenzamide]
- inhibition at 0.3 µM [12]: 32%
- inhibition at 3 µM [12]: 67%
- inhibition at 30 µM [12]: 91%

Structure (SMILES): COc1cc(/C=C(/C(=O)N(C)C)c2ccc(O)cc2)cc(OC)c1 [Compound 49, 3-(3,5-dimethoxyphenyl)-2-(4-hydroxyphenyl)-N,N-dimethylacrylamide]
- inhibition at 3 µM [12]: 14%
- inhibition at 10 µM [12]: 47%
- inhibition at 30 µM [12]: 54%

Structure (SMILES): COc1cc(/C=C(/C(=O)N2CCCCC2)c2ccc(Oc3ccc(CCC(=O)NC(N)=O)cc3)cc2)cc(OC)c1 [Compound 51, [3-(4-{4-[2-(3,5-dimethoxyphenyl)-1-(piperidine-1-carbonyl)-vinyl]-phenoxy}-phenyl)-propionyl]-urea]
- inhibition at 3 µM [12]: 25%
- inhibition at 10 µM [12]: 57%
- Cell viability [18]: * (Cell viability <70%)

Structure (SMILES): CC(=O)NC(=O)CCc1ccc(Oc2ccc(/C(=C\c3ccc(F)cc3)C(=O)N(C)C)cc2)cc1 [Compound 56, 2-{4-[4-(3-acetylamino-3-oxopropyl)-phenoxy]-phenyl}-3-(4-fluorophenyl)-N,N-dimethylacrylamide]
- inhibition at 0.3 µM [12]: 1%
- inhibition at 3 µM [12]: 6%
- inhibition at 30 µM [12]: 54%

Structure (SMILES): COc1cc(/C=C(/C(=O)N(C)C)c2ccc(Oc3ccc(CC(C(N)=O)C(N)=O)cc3)cc2)cc(OC)c1 [Compound 59, 2-(4-{4-[2-(3,5-dimethoxyphenyl)-1-dimethylcarbamoylvinyl]-phenoxy}-benzyl)-malonamide]
- inhibition at 0.3 µM [12]: 27%
- inhibition at 3 µM [12]: 69%
- inhibition at 30 µM [12]: 80%

Structure (SMILES): COc1cc(/C=C(/C(=O)N(C)C)c2ccc(Oc3ccccn3)cc2)cc(OC)c1 [Compound 66, 3-(3,5-dimethoxyphenyl)-N,N-dimethyl-2-[4-(pyridin-2-yloxy)-phenyl]-acrylamide]
- inhibition at 0.3 µM [12]: 27%
- inhibition at 3 µM [12]: 53%
- inhibition at 30 µM [12]: 84%

Structure (SMILES): COc1cc(/C=C(/C(=O)N(C)C)c2ccc(NC(=O)c3ccccc3)cc2)cc(OC)c1 [Compound 67, N-{4-[2-(3,5-dimethoxyphenyl)-1-dimethylcarbamoylvinyl]-phenyl}-benzamide]
- inhibition at 0.3 µM [12]: 40%
- inhibition at 3 µM [12]: 62%
- inhibition at 30 µM [12]: 89%

Structure (SMILES): CCOC(=O)CCc1ccc(Oc2ccc(C(=Cc3ccc4c(c3)OCO4)C(=O)N(C)C)cc2)cc1 [Compound 69, 3-{4-[4-(2-benzo[1,3]dioxol-5-yl-1-dimethylcarbamoylvinyl)-phenoxy]-phenyl}-propionic acid ethyl ester]
- inhibition at 0.3 µM [12]: 1%
- inhibition at 3 µM [12]: 22%
- inhibition at 30 µM [12]: 50%

Structure (SMILES): CN(C)C(=O)/C(=C/c1cccnc1)c1ccc(Oc2ccc(CC(C(N)=O)C(N)=O)cc2)cc1 [Compound 71, 2-{4-[4-(1-dimethylcarbamoyl-2-pyridin-3-ylvinyl)-phenoxy]-benzyl}-malonamide]
- inhibition at 0.3 µM [12]: 20%
- inhibition at 3 µM [12]: 47%
- inhibition at 30 µM [12]: 65%

Structure (SMILES): CN(C)C(=O)/C(=C/c1cccnc1)c1ccc(Oc2ccc(CCC(=O)NC(N)=O)cc2)cc1 [Compound 73, N,N-dimethyl-2-{4-[4-(3-oxo-3-ureidopropyl)-phenoxy]-phenyl}-3-pyridin-3-yl-acrylamide]
- inhibition at 0.3 µM [12]: 30%
- inhibition at 3 µM [12]: 62%
- inhibition at 30 µM [12]: 81%

Structure (SMILES): CN(C)C(=O)/C(=C/c1cccnc1)c1ccc(Oc2ccc(CCC(N)=O)cc2)cc1 [Compound 77, 2-{4-[4-(2-carbamoyl-ethyl)-phenoxy]-phenyl}-N,N-dimethyl-3-pyridin-3-yl-acrylamide]
- Percent TNF Production (Mean ± SEM) ([16]; 50 mg/kg oral): 54 ± 10%
- Percent TNF Production (Mean ± SEM) ([16]; 100 mg/kg oral): 67 ± 20%
- inhibition of LPS-induced TNF-alpha production in mice [16]: significantly inhibited

Structure (SMILES): CN(Cc1cnc2nc(N)nc(N)c2n1)c1ccc(C(=O)N[C@@H](CCC(=O)O)C(=O)O)cc1 [Methotrexate, methotrexate, reference compound]
- Percent TNF Production (Mean ± SEM) ([16]; 10 mg/kg oral): 61 ± 5%
